# Test results as given in ChEMBL document CHEMBL1201862, “PubChem BioAssay data set” (2004).
#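 Tested at 5 concentrations; 48 h exposure; 96-well plates; endpoints linearly interpolated, else capped at highest concentration. At the GI50, growth is halved.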 Activity calls are given as the source filed them. No stated cut-off is given here; in the data, active = GI50 up to about 1.1 µM and inactive = higher.
# Tests used:
# Assay in all cases: growth of human tumour cells (NCI), 48 h
# [1] = test system: T47D
# [2] = test system: BT-549
# [3] = test system: M14
# [4] = test system: NCI-H23
# [5] = test system: LXFL 529
# [6] = test system: DMS-273
# [7] = test system: HOP-18
SMILES,GI50 [1],GI50 [2],GI50 [3],GI50 [4],GI50 [5],GI50 [6],GI50 [7]
Brc1ccc2c(c1)[C@H]1CCc3c([nH]c4ccccc34)[C@H]1N2,3.11 µM (inactive),18.4 µM (inactive),13.2 µM (inactive),12.4 µM (inactive),–,–,–
COC(=O)/C=C\n1ncc(=O)[nH]c1=O,> 100 µM (inactive),> 100 µM (inactive),> 100 µM (inactive),> 100 µM (inactive),–,–,–
CC(=O)Nc1ccc(Sc2nnc(NC(C)=O)s2)cc1,> 100 µM (inactive),–,> 100 µM (inactive),–,–,–,–
CN(C)CCCNC(=O)N/N=C\c1cccc2ccccc12,> 10 µM (inactive),–,> 10 µM (inactive),–,–,–,–
CN(CCO)/N=N/c1[nH]cnc1C(N)=O,–,–,37.8 µM (inactive),> 100 µM (inactive),> 100 µM (inactive),49.9 µM (inactive),–
CN(C)CCNC(=O)c1cccc2c(=O)c3ccccc3oc12,–,–,–,35.3 µM (inactive),–,28.8 µM (inactive),48 µM (inactive)
COc1cc(C2c3cc4c(cc3[C@@H](Nc3ccccc3)C3COC(=O)[C@H]23)OCO4)cc(OC)c1O (some centres not stated),–,–,–,0.238 µM (active),–,0.142 µM (active),0.853 µM (active)
